Counter-ions that a name gives are not always drawn.
Tests used:
Type in all cases: physicochemical
[1] = Solubility of 25HC3S salts after one day at room temperature (HPLC, as free acid); conditions: room temperature, one day
Experimental: These fluids were prepared per the instruction listed by Biorelevant (Biorelevant.com). Each buffer concentrate was diluted with water and mixed well. FaSSIF, FeSSIF, FaSSGF powder was added to each buffer and mixed to completely dissolve the powder. Buffers were stored at room temperature and used within 48 hours of preparation.
25HC3S salts were weighed in 8 mL or 4 mL glass vials with Teflon coated screw caps. Aliquots of each solvent were added to each sample and vortexed for about one minute until excess solid remained. Samples were placed on shaker at room temperature with 210 motion per minute shaking.
After one day, samples were pulled and checked if excess solid was present. About 1.5 mL aliquot of each sample was centrifuged at 12000 rpm for 12 to 15 minutes. […] Aliquots of the top clear solution of each centrifuged sample in MeOH, EtOH, IPA and ACN were diluted with diluent (water:MeOH 95:5) and assayed by HPLC. Samples of the salts in aqueous media were assayed by HPLC without dilution.
All solubility sample solutions of 25HC3S salts were determined using HPLC. A linear standard curve was constructed using standards with concentration between 11 μg/mL to 1.5 mg/mL as free acid forcing the curve to origin. Solubilities are reported as mg/mL free acid 25HC3S. Detection limit (LOD) of the HPLC method was calculated as 0.0007 mg/mL.

[2] = Solid-state chemical stability of 25HC3S salts at 2-8° C., 60° C. and 80° C. (HPLC assay and degradation products); conditions: for % Impurities, Total / % Impurities, 25-HC: ND = Not Detected; for % Impurities, 25-HC: 25-Hydroxy-Cholesterol; for Physical and chemical solid-state stability (comments): listed as 25HC3S Hydroxyethylpyrrolidinium
Experimental: (§1) Approximately 25 mg of each crystalline 25HC3S salt was added to 20 mL glass vials and each powder weight was recorded. Four vials were prepared for each salt and stored at 2-8° C. or 80° C. according to Table B2. The samples were scheduled initially to pull for testing at 3 weeks and 6 weeks' time points.
(§2) For those […] salts, the remaining vials stored at 2-8° C. for 3 weeks were allocated for storage at 60° C. for 1 week. Additional stability data was generated according to Table B3.
Based on the molecular weights, and expected UV response factors of each salt used in this study, the expected analytical sample concentrations were within the range of the 25HC3S sodium reference standards (0.75 mg/mL to 1.25 mg/mL as 25HC3S sodium salt). However, due to the lower-than-expected purity of the 25HC3S benzathine salt, an additional standard was prepared at 0.125 mg/mL as 25HC3S sodium salt.
Samples were prepared by pipetting 20 mL of 100% methanol into each vial and mixing well, with sonication and vortexing to fully dissolve the samples for HPLC analysis.
Samples were prepared by pipetting 20 mL of 100% methanol into each vial followed by two rounds of sonication for 30 minutes, with 30 seconds of vortexing before and after each round. Sample aliquots were then centrifuged at 10,000 RPM for 10 minutes and the supernatant collected for HPLC analysis.
Samples were prepared by pipetting 20 mL of 100% methanol into each vial, followed by 5 seconds of vortexing. The undissolved powder in methanol was quantitatively transferred into 200 mL volumetric flasks. The sample vials were rinsed 3 times with methanol, with each rinsate transferred to the 200 mL volumetric flasks. The volumetric flasks were filled to about 90% volume and sonicated for 10 minutes to fully dissolve the powder. The flasks were filled to volume with methanol, mixed well and aliquots collected for HPLC analysis.
HPLC analysis was performed.

[3] = Appearance (color, clumping, flowability) of stored 25HC3S salts; conditions: for Appearance: listed as 25HC3S hydroxyethylpyrrolidinium
Experimental: as §1, §2
For appearance, each unopened vial was visually examined for color, clumping, and flowability.

[4] = Hausner ratio and compressibility index of 25HC3S salts; conditions: listed as 25HC3S hydroxyethylpyrrolidinium
Experimental: Although there are some variations in the method of determining the compressibility index and Hausner ratio, the basic procedure is to measure the unsettled apparent volume, VO, and the final tapped volume, Vf, of the powder after tapping the material until no further volume changes occur. The compressibility index and the Hausner ratio are calculated as follows: […]
Both the Hausner ratio and the compressibility index are empirically established. The Hausner ratio and compressibility index are not absolute properties of a material; its value can vary depending on the methodology used to determine them. In this case, since the 14 salts of 25HC3S were measured the same way, the relative values should be accurate.
Table C3, from USP <1174> Powder Flow, describes the flow character of the powder based on the compressibility index and Hausner ratio values.
Powder was carefully poured into a 5 mL glass graduated cylinder (to contain) until it was close to or at 5.0 mL. This initial volume was recorded as Vo. The graduated cylinder was tapped on a hard surface for 200 times and the volume was recorded. The cylinder was tapped 100 times more, and the final volume Vf was recorded. Typically, the volume after 200 taps was identical to after 300 taps, or within 0.1 mL.

[5] = Overall rank order of powder flowability (angle of repose and Hausner ratio)
Description: Table C5 was generated by adding the relative rank order of the 25HC3S salts for angle of repose and Hausner ratio results, and creating an Over All Rank Order of the salts powder flowability. The salts with the lower overall rank order score had better powder flowability.

[6] = listed as crystalline 25HC3S hydroxyethylpyrrolidinium
[7] = 2-8° C., 3 wk, listed as 25HC3S hydroxyethylpyrrolidinium
[8] = 60° C., 1 wk, listed as 25HC3S hydroxyethylpyrrolidinium
[9] = 80° C., 3 wk, listed as 25HC3S hydroxyethylpyrrolidinium
[10] = rank, lower is better flow, listed as 25HC3S hydroxyethylpyrrolidinium

Solubility in 0.9% NaCl ([1]; 0.9% NaCl, as free acid, ND = not detected, detection limit 0.7 μg/mL, 1440 min, listed as 25HC3S hydroxyethylpyrrolidinium): 3 µg/mL | Solubility in 5% Dextrose ([1]; as free acid, LOD 0.0007 mg/mL, 1440 min): 642 µg/mL | Solubility in 5% Dextrose ([1]; as free acid, ND = not detected, detection limit 0.7 μg/mL, 1440 min, listed as 25HC3S hydroxyethylpyrrolidinium): 642 µg/mL | Solubility in acetonitrile (in words) ([1]; ACN): relatively high solubility | Solubility in FaSSGF (in words) ([1]; FaSSGF): high solubility | Solubility in FaSSGF ([1]; FaSSGF, as free acid, ND = not detected, detection limit 0.7 μg/mL, 1440 min, listed as 25HC3S hydroxyethylpyrrolidinium): 10 µg/mL | Solubility in FaSSIF (in words) ([1]; FaSSIF): high solubility | Solubility in FaSSIF ([1]; FaSSIF, as free acid, 1440 min, listed as 25HC3S hydroxyethylpyrrolidinium): 161 µg/mL | Solubility in FaSSIF (in words) ([1]; FaSSIF, listed as crystalline 25HC3S hydroxyethylpyrrolidinium): relatively high solubility | Solubility in FaSSIF ([1]; Fasted State Simulated Intestinal Fluid, as free acid, 1440 min): 161 µg/mL | Solubility in FeSSIF (in words) [1]: high solubility | Solubility in FeSSIF (in words) [1, 6]: relatively high solubility | Solubility in methanol (in words) ([1]; MeOH): did not reach saturation | Solubility in ACN ([1]; acetonitrile, as free acid, 1440 min, listed as 25HC3S hydroxyethylpyrrolidinium): 1200 µg/mL | Solubility in 5% dextrose (in words) [1]: highest solubility | Solubility in 5% dextrose (in words) [1, 6]: relatively high solubility | Solubility in IPA ([1]; isopropyl alcohol, as free acid, 1440 min, listed as 25HC3S hydroxyethylpyrrolidinium): 6700 µg/mL | Solubility in saline / 0.9% sodium chloride (in words) ([1]; saline): highest solubility | Solubility in water (in words) ([1]; water): highest solubility | Solubility in H2O ([1]; water, as free acid, ND = not detected, detection limit 0.7 μg/mL, 1440 min, listed as 25HC3S hydroxyethylpyrrolidinium): 273 µg/mL | Assay ([2]; 2-8° C., 3 wk, 30240 min, listed as 25HC3S hydroxyethylpyrrolidinium): 100.5 % w/w | % Impurities, Total [2, 7]: 2.0% | % Impurities, 25-HC [2, 7]: 0.3% | % Impurities, 25-HC [2, 8]: 0.4% | % Impurities, 25-HC [2, 9]: 0.3% | Physical and chemical solid-state stability (comments) ([2]; 60° C., 1 week): Stable after 1 week at 60 °C | Assay ([2]; 60° C., 1 wk (after 3 weeks at 2-8° C.), 10080 min, listed as 25HC3S hydroxyethylpyrrolidinium, 10080 min): 104.9 % w/w | % Recovery of 2-8° C./3 wk vs 60° C./1 wk ([2]; 60° C., 1 wk, 10080 min, listed as 25HC3S hydroxyethylpyrrolidinium): 104.4% | % Impurities, Total [2, 8]: 1.8% | Physical and chemical solid-state stability (comments) ([2]; 80° C., 3 weeks): totally decomposed after 3 | % Recovery ([2]; 80° C., 3 wk, vs 2-8° C., 30240 min, listed as 25HC3S hydroxyethylpyrrolidinium, 30240 min): 0.0% | Assay ([2]; 80° C., 3 wk, 30240 min, listed as 25HC3S hydroxyethylpyrrolidinium): 0.0 % w/w | % Impurities, Total [2, 9]: 99.9% | Stability after 1 week at 60° C. (in words) ([2]; solid state, 60° C., 1 week (after 3 weeks at 2-8° C.)): stable | Stability after 3 weeks at 80° C. (in words) ([2]; solid state, 80° C., 3 weeks): totally decomposed | Appearance ([3]; 2-8° C., 3 wk): White, free flowing powder with clumping | Appearance ([3]; 60° C., 1 wk (after 3 weeks at 2-8° C.)): White, free flowing powder with clumping | Appearance after 3 weeks at 80° C. ([3]; 80° C., 3 weeks): completely burned | Appearance ([3]; 80° C., 3 wk): Dark brown, melted material stuck to | Compressibility Index ([4]; Table C3 heads this index in %): 35 | Hausner Ratio [4]: 1.53 | Powder flowability, overall (in words) ([5]; angle of repose and compressibility index/Hausner ratio combined, listed as hydroxyethylpyrrolidinium): poorer flowability | Angle of Repose Rank Order [5, 10]: 15 | Hausner Ratio Rank Order [5, 10]: 10 | Overall Rank Order (Total Score) ([5]; sum of both ranks, lower is better flow, listed as 25HC3S hydroxyethylpyrrolidinium): 25
SMILES: CC(CCCC(C)(C)O)C1CCC2C3CC=C4CC(OS(=O)(=O)O)CCC4(C)C3CCC12C (stereo not drawn) [Salt #6]

Source: patent publication US20260317367A1, “SALTS INCLUDING CRYSTALLINE SALTS OF 25-HYDROXY-CHOLEST-5-EN-3-SULFATE AND METHODS FOR PREPARING SAME” (Durect Corporation, priority 2022, published 2026)
